From patent US6545021B1, “Use of substituted-1,5-dideoxy-1,5-imino-D-glucitol compounds for treating hepatitis virus infections” (G.D. Searle & Co., priority 1999, dated 2003) come the findings set out here.

For one test, the system named is HBV. The test is described as follows: Cell culture experiments with N-nonyl-DNJ: total HBV DNA and immune precipitated DNA. It is filed as cell-based, hepatitis B virus. From the text:
(§1) There are two measures of drug efficacy: reduction in total HBV DNA (measured by quantitative PCR), and reduction in HBV DNA from capsids with intact surface glycoproteins, which is the active form of the virus (measured by an ELISA-like immune precipitation assay followed by quantitative PCR).

In test [1] the test system is woodchuck hepatitis virus (WHV). The test can be described thus: Woodchuck model, N-nonyl-DNJ monotherapy, BID oral dosing. Format: in vivo. As for the experimental part:
Therefore, five groups of four animals each (all groups had both sexes, all but the control had two of each sex) were assigned to 0, 12.5, 25, 50, and 100 mg/kg/day with BID oral dosing. These were lab-reared wild animals. All animals were infected with woodchuck hepatitis virus (WHV) as neonates, and had been tested positive on serological tests for WHV surface antigen. Blood samples were drawn one week prior to dosing (−1 week), immediately before dosing (0 weeks), weekly during dosing (1, 2, 3, and 4 weeks), and after the end of dosing (5, 6, 8, and 10 weeks).
as §1
Before models are fitted to the data, a log transform was applied because: 1) the variation in IPDNA increases with increasing IPDNA values; the log transformation gives values with a nearly constant variation, and 2) it is expected that drug effects will appear as a constant multiplier of the IPDNA level. Because there are zero values of IPDNA, a small value (about ½ of the smallest non-zero value) was added to all values before the log transform.
Two approaches were used to model the changes in slope to week with dose of N-nonyl-DNJ: a linear modeling approach and a nonlinear model. Both approaches assume that the (linear) rate of change of the Log(IPDNA) measure over the dosing period is the “right” measure to reflect the effect of the drug on the virus. Both approaches are fit in stages, and the first stage is common to both approaches. First, a simple straight line regression model is fit using weeks 0-4 to predict log(IPDNA_+—10) separately for each animal by run combination. In the second stage, the response variable is the slope fitted in the first stage.
For the linear approach, a model is fit with slope to week as the response where run is considered a block, dose has a significant effect (almost all of this effect is due to a slope to dose), and the relevant error for testing the effect of dose is the variation among animals treated alike (after the adjustment for the runs as blocks). This is similar to using the calibration data within each run to first adjust each run's data to a common virus DNA concentration; the difference is that here the data from the woodchucks are used for the run adjustment rather than only the calibration data.
For the nonlinear approach, a four parameter logistic model is fit with the slope to week as the response and the dose as the predictor. Again, run is considered a block, but because no run has all weeks, it is not possible to fully reflect the blocking in the nonlinear approach. […] The average maximum slope observed was 2.71 additional Log(IPDNA g/mL)/week, or an increase of about 150%/week, the average minimum slope observed with N-nonyl-DNJ is 0.31 fewer Log(IPDNA g/mL)/week), or about a decrease of about 25%/week. The slopes, the fitted model, the parameter estimates from the model, and the approximate standard errors for these parameters are all shown in FIG. 3. […] Whether in woodchucks or humans, the effective dose of both the N-alkyl-DNJ and nucleoside or nucleotide antiviral agent administerd in combination therewith can be administerd in two equal daily subdoses (i.e., B.I.D.).

`CCCCCCCCCN1C[C@H](O)[C@@H](O)[C@H](O)[C@H]1CO` [N-nonyl-DNJ, N-(n-nonyl)-1,5-dideoxy-1,5-imino-D-glucitol]: in the test on HBV, the “effect on the immune precipitated DNA (IPDNA)” value is recorded as “marked effect” and the “effect on total HBV DNA” value was “little or no effect”. In addition, in test [1] (all dose levels, quantitative PCR), the “effect on total HBV DNA measurements” value is recorded as “no effect”. Besides, the “levels of IPDNA over the dosing period” value in test [1] (high dose animals, weeks 0-4) was “decreasing levels of IPDNA”. Besides, in test [1] (low dose animals, weeks 0-4), the “levels of IPDNA over the dosing period” value was “increasing levels of IPDNA”. In addition, in test [1] (weeks 0-4), the “average minimum slope observed” value is 0.31 fewer Log(IPDNA g/mL)/week and the “decrease of IPDNA per week at average minimum slope” value is on record as “about 25 %/week”. Also, the “approximate effective monotherapy dose” value in test [1] (woodchucks) is “about 16 mg/kg/day”.
